Consider two compounds from patent publication US9102620B2, “Deuterated N-ethyl-N-phenyl-1,2-dihydro-4-hydroxy-5-chloro-1-methyl-2-oxoquinoline-3-carboxamide, salts and uses thereof” (TEVA PHARMACEUTICAL INDUSTRIES, LTD., priority 2010, dated 2015).

“And” between values parts separate entries of the source, which are not always exact repeats. Identical values can stand only once. Like-named read-outs stand apart in the source and are kept apart here.

A short description of series [1]: Pharmacokinetic profile in rat plasma following oral administration. Format: in vivo. The procedure:
The main objectives of this example were: • Quantification of Compound 1, Compound 2, Compound 3 and Laquinimod in rat plasma using LC/MS/MS bioanalytical method. • Characterization of the pharmacokinetic profile of Compound 1, Compound 2, Compound 3 and Laquinimod following oral (PO) administration at a dose of 0.2 mg/kg. • The measurement DELAQ concentrations in the collected plasma samples. Rats cannulated at the right common jugular vein by polyethylene tubing were used. In the in-life part, three cannulated female rats were treated with each of the four test articles at dose of 0.2 mg/kg. Blood was withdrawn from the rats at five different time points for the preparation of plasma. The concentrations of Compound 1, Compound 2, Compound 3, laquinimod, and DELAQ were determined in these plasma samples, using applicable LC/MS/MS methods. Oral administration was performed by oral gavage at a dosage volume of 5 ml/kg using a blunt feeding stainless steel needle (Popper & Sons, USA). Body weights were measured before dose administration and doses were calculated on the basis of individual body weight. Blood were withdrawn from animals at the following time points: 1, 2, 4, 8 and 24 hours after dosing as detailed in the table below. The actual sampling time were recorded. Each animal was restrained firmly. After the removal of the seal the port of the cannula was accessed with an appropriate blunted needle mounted on a syringe containing PBS. After having withdrawn approximately 100 μL of blood, the syringe was changed to a clean heparinized syringe. Approximately 250 μL of blood was collected for the preparation of plasma. The first 100 μL fraction of blood was returned and 250 μL of PBS was given to the animal through the catheter. The catheter was filled by heparinized glycerol (100 IU/ml) solution prepared by mixing 10 ml stock heparin (200 IU/ml) with 10 ml of sterile glycerol (d=1.26 g/mL). Blood specimens were mixed immediately and were placed on water ice. Whole blood was centrifuged at 2500 g for 10 min at 4° C., and the separated plasma was transferred into pre-labeled polypropylene tubes and the tubes were frozen at −70° C. within 70 minutes of collection. The concentrations of test items (Compound 1, Compound 2, Compound 3 and Laquinimod) and the concentration of DELAQ were determined in the plasma samples by using reliable LC/MS/MS assay. Pharmacokinetic parameters were calculated and the mean plasma levels versus time curves were evaluated. The following pharmacokinetic parameters were determined from the mean plasma concentration-time data (mean of three animals at each time point) of Compound 1, Compound 2, Compound 3 and Laquinimod.

Series [2] deals with human hepatocyte culture H971. The series can be described thus: Morphology of cultured human hepatocytes after treatment. The series is classed as cell-based. The settings on record: within 24 hours after final treatment. How it is done: At the time of isolation the viability of the human hepatocyte preparation was 70.9%. During and after the 72-hour adaptation period, the culture was observed daily by light microscopy and judged to be morphologically normal with confluency adequate for treatment with test and control articles. Within 24 hours after the final treatment, hepatocytes were photographed to document their morphological integrity and any overt signs of toxicity of the test articles. Representative photomicrographs are maintained at the Testing Facility. […] Prior to and during treatment, human hepatocyte cultures formed confluent monolayers with few intercellular spaces; they were cuboidal and contained intact cell membranes and granular cytoplasm with one or two centrally located nuclei.

Series [3] relates to cultured human hepatocytes. Format: in vitro ADME. The procedure: Just prior to treatment, on each day of treatment, and just prior to incubation of the marker substrates, spent culture medium (spent dosing media) were collected from the vehicle, laquinimod and Compound 2 treatment groups. Approximately 150 μL was collected from each of three wells, from each aforementioned treatment groups, and pooled for each sample to a final volume of approximately 450 μL. These spent media samples were analyzed for residual laquinimod, Compound 2 and the de-ethylated metabolite (DELAQ).
The concentrations of Compound 2, laquinimod and DELAQ were measured in spent media aliquots from media collected just prior to treatment, on each day of treatment, and just prior to incubation of the marker substrates. The concentration of formed DELAQ was approximately 2-fold higher in the laquinimod media compared to the Compound 2 media. At the 10 μM treatment concentrations of either Compound 2 or laquinimod, the ratio of Compound 2:DELAQ was on average, 40.9 while the ratio of laquinimod:DELAQ was on average, 15.7. This represents an approximately 3-fold increase in the formation of DELAQ from laquinimod compared to Compound 2 and is explained by the presence of deuterium on the ethyl moiety which results in slower N-deethylation.

Setting [4] is: female, rat, po, 0.2 mg/kg, Average of rats.
Where [5] appears, read: female, rat, po, 0.2 mg/kg, Average of rats, read-out: Cmax.
Setting [6] is: female, rat, po, 0.2 mg/kg, Average of rats, read-out: Tmax.
Where [7] appears, read: female, rat, po, 0.2 mg/kg, individual rats.
[8] abbreviates: female, rat, po, 0.2 mg/kg, individual rats, read-out: Cmax.
Where [9] appears, read: female, rat, po, 0.2 mg/kg, individual rats, read-out: Tmax.
Setting [10] is: individual rats, oral 0.2 mg/kg.

A word on the AUC(0-inf): it is the area under the concentration-time curve extrapolated to infinity. As a reminder, the AUC(0-t) is exposure summed from dosing to a finite time, without extrapolation to infinity. Low readings indicate less exposure, high ones more exposure. The term half-life denotes the time needed for the level to fall by half in the phase considered. A lower half-life goes with fast loss. In general, Cmax refers to the peak of the concentration-time curve. A word on the Tmax: it is the time from dosing to the highest level. Regarding `[2H]C([2H])([2H])C([2H])([2H])N(C(=O)c1c(O)c2c(Cl)cccc2n(C)c1=O)c1ccccc1` [Compound 2, N-D5-ethyl-N-phenyl-1,2-dihydro-4-hydroxy-5-chloro-1-methyl-2-oxoquinoline-3-carboxamide], in series [1] (setting [4]), the AUC(0-inf) came to 12300 ng·h/mL, the AUC(0-t) stood at 10300 ng·h/mL and the half-life is 13.8 h. For the same compound, the Cmax in series [1] (setting [5]) was determined as 725 ng/mL. Further, the time of peak concentration (Tmax) in series [1] (setting [6]) was 1.8 h. In addition, in series [1] (setting [7]), the total exposure AUC(0-inf) was 10000 ng·h/mL, the AUC(0-t) stood at 10000 ng·h/mL and the half-life is 13.6 h. The peak concentration (Cmax) in series [1] (setting [8]) was 704 ng/mL. Moreover, in series [1] (setting [9]), the Tmax was 2 h. Besides, in series [1] (setting [10]), the AUCinf was 14699.6 ng·h/mL and 12439.0 ng·h/mL and 11975.3 ng·h/mL; the AUClast is 10422.1 ng·h/mL and 8741.6 ng·h/mL and 11975.3 ng·h/mL; the Cmax is 827.6 ng/mL and 551.4 ng/mL and 816.2 ng/mL; the T1/2 was 13.4 h and 14.6 h. Also, in series [1] (setting [10]), the time to peak (Tmax) is 1.0 h. For the same compound, the “cell morphology after treatment” value in series [2] is on record as “no changes in cell morphology”. Moreover, in series [3] (10 μM), the “difference in the Compound 2:DELAQ to laquinimod:DELAQ ratio” value is recorded as approximately 3 fold and the “ratio of test article:DELAQ in spent media, on average” value is recorded as 40.9.
In series [1] (setting [4]), `CCN(C(=O)c1c(O)c2c(Cl)cccc2n(C)c1=O)c1ccccc1` [Laquinimod, N-ethyl-N-phenyl-1,2-dihydro-4-hydroxy-5-chloro-1-methyl-2-oxoquinoline-3-carboxamide] gave an AUC(0-inf) of 15500 ng·h/mL, an exposure AUC(0-t) of 11700 ng·h/mL and a half-life of 11.8 h. Moreover, the peak concentration (Cmax) in series [1] (setting [5]) stood at 794 ng/mL. Moreover, the time to peak (Tmax) in series [1] (setting [6]) is 1.7 h. In series [1] (setting [7]), this compound gave an AUC(0-inf) of 14700 ng·h/mL, an exposure AUC(0-t) of 11000 ng·h/mL and a half-life of 12 h. In series [1] (setting [8]), the highest concentration (Cmax) came out at 770 ng/mL. For the same compound, the time to peak (Tmax) in series [1] (setting [9]) is 2 h. Further, in series [1] (setting [10]), the AUCinf was 17141.8 ng·h/mL and 14684.6 ng·h/mL; the AUClast was 12659.7 ng·h/mL and 11487.3 ng·h/mL; the Cmax was 774.8 ng/mL and 838.8 ng/mL; the T1/2 was 12.4 h and 10.9 h. In addition, in series [1] (setting [10]), the time of peak concentration (Tmax) amounted to 1.0 h. The “cell morphology after treatment” value in series [2] was “no changes in cell morphology”. The “concentration of formed DELAQ in laquinimod media compared to Compound 2 media” value in series [3] is listed as “approximately 2 fold”. In series [3] (10 μM), the “increase in the formation of DELAQ from laquinimod compared to Compound 2” value is “approximately 3 fold” and the “ratio of test article:DELAQ in spent media, on average” value worked out at 15.7.
